Results on 25 molecules are retold here after patent US8399465B2, “Compounds with two fused bicyclic heteroaryl moieties as modulators of leukotriene A4 hydrolase” (Janssen Pharmaceutica NV, priority 2009, dated 2013).

For test [1], the target named is T1, recombinant human LTA4 hydrolase (rhLTA4H) (Homo sapiens, UniProt P09960).
T1 construct: made in house; host or cells: Spodoptera frugiperda (Sf-9) cells, baculovirus (pFastBac1)
T1 sequence (P09960 1-611): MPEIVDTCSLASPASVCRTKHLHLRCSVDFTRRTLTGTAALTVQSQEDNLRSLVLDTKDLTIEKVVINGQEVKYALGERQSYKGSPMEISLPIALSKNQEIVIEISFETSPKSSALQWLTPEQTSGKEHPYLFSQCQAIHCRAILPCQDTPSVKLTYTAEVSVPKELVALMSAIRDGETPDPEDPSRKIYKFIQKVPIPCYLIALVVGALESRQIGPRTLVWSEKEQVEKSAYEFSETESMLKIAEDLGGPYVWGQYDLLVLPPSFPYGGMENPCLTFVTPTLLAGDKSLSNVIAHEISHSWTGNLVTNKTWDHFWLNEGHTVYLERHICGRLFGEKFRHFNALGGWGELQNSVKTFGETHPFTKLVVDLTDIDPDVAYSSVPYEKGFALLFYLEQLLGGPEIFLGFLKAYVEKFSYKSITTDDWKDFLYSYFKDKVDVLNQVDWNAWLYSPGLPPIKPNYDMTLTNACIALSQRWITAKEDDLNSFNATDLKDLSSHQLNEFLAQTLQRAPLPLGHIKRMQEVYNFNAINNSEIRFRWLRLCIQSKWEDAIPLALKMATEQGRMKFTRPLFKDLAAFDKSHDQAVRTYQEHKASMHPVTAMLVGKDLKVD
Nature of the test: Recombinant human LTA4 hydrolase assay for LTA4 hydrolase inhibitor activity. The test is classed as biochemical. The method, boiled down: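 LTB4 formation, measured by enzyme immunoassay, was the read-out. The enzyme, recombinant human LTA4H expressed in Sf-9 insect cells (10 ng per reaction), was exposed to compound for 10 min at room temperature before hydrolysed-ester LTA4 substrate was added for 30 min. Enzyme-free negatives were included.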

In test [2] the test system is LTB4 production in murine blood (LTA4H). Nature of the test: LTB4 production by calcium ionophore-stimulated murine blood for LTA4H inhibitor activity. It is filed as cell-based, CD-1 mice. The following applies: Mus musculus; murine blood diluted 1 in 15, A23187 stimulated; single determination or average; mark after value = form tested: ′ free base, ″ hydrochloride, ^ formate; read-out: IC50. The method, then: Assay 2: LTB4 Production by Calcium Ionophore-Stimulated Murine Blood for LTA4H Inhibitor Activity
CD-1 mice were sacrificed, and blood was collected in heparin-containing syringes by cardiac puncture. […] After the microtiter plate contents were incubated for 15 min at 37° C. in a humidified incubator, calcium ionophore A23187 (Sigma Chemical Co., St. Louis, Mo.) was added to each sample well (final concentration=7 μg/mL). The incubation was continued under the same conditions for an additional 30 min to allow LTB4 formation. The reaction was terminated by centrifugation (833×g, 10 min at 4° C.), and supernatants were analyzed for LTB4 by a commercially available enzyme-linked immunoassay (Cayman Chemical Co.) according to the manufacturer's instructions. Positive controls, under essentially identical conditions but without addition of an inhibitor compound, and negative unstimulated controls, containing all assay components except calcium ionophore, were routinely run in each experiment. […] The values presented here are the result of a single determination or an average of two or more determinations.

The mark [3] stands for this setting: rhLTA4H, LTB4 by immunoassay, single determination or average of two or more, mark after value = form tested: ′ free base, ″ hydrochloride, ^ formate, read-out: IC50.

SMILES strings stand for the structures. Counter-ions that a name gives are not always drawn. Like-named read-outs stand apart in the source and are kept apart here.

As usually defined, the IC50 is the concentration needed to halve the response being measured. As for `NC(=O)N1CC2CN(Cc3cc4cc(Oc5nc6ncccc6s5)ccc4o3)CC2C1` (centres unmarked) [Example 91, 5-[5-(Thiazolo[4,5-b]pyridin-2-yloxy)-benzofuran-2-ylmethyl]-hexahydro-pyrrolo[3,4-c]pyrrole-2-carboxylic acid amide], the IC50 in test [1] (setting [3]) worked out at 88 nM; in test [2] it was 97 nM.
`CC(=O)N[C@H]1CCN(Cc2coc3cc(Oc4nc5ncccc5s4)ccc23)C1` [Example 310, (S)—N-{1-[6-(Thiazolo[4,5-b]pyridin-2-yloxy)-benzofuran-3-ylmethyl]-pyrrolidin-3-yl}-acetamide]: the concentration for half-maximal inhibition (IC50) came out at 13 nM in test [1] (setting [3]) and 36 nM in test [2].
Take `CCn1c(CN2CCCC2)cc2cc(Oc3nc4ccccc4s3)ccc21` [Example 64, 2-(1-Ethyl-2-pyrrolidin-1-ylmethyl-1H-indol-5-yloxy)-benzothiazole]: the IC50 in test [1] (setting [3]) worked out at 93 nM; in test [2] it was 2430 nM.
Taken in the same sequence, the figures for `NC(=O)N1C[C@@H]2C[C@H]1CN2` [Inter. 17, (1S,4S)-2,5-Diaza-bicyclo[2.2.1]heptane-2-carboxylic acid amide hydrochloride] were 37 nM and 1000 nM.
In the case of `NC(=O)N1C[C@H]2C[C@@H]1CN2Cc1cc2ccc(Oc3nc4ncccc4s3)cc2o1` [Example 193, (1R,4R)-5-[6-(Thiazolo[4,5-b]pyridin-2-yloxy)-benzofuran-2-ylmethyl]-2,5-diaza-bicyclo[2.2.1]heptane-2-carboxylic acid amide], the values for the IC50 in test [1] (setting [3]) and in test [2] were 52 nM and 260 nM, respectively.
As for `c1ccc(N2CCN(Cc3coc4cc(Oc5nc6ncccc6s5)ccc34)CC2)cc1` [Example 287, 2-[3-(4-Phenyl-piperazin-1-ylmethyl)-benzofuran-6-yloxy]-thiazolo[4,5-b]pyridine formate], the figures for the IC50 in test [1] (setting [3]) and in test [2] were 26 nM and 240 nM, respectively.
As to `COC1CCN(Cc2coc3cc(Oc4nc5ncccc5s4)ccc23)CC1` [Example 271, 2-[3-(4-Methoxy-piperidin-1-ylmethyl)-benzofuran-6-yloxy]-thiazolo[4,5-b]pyridine formate], the values for the IC50 in test [1] (setting [3]) and in test [2] were 5 nM and 79 nM, respectively.
For `CC(=O)N[C@H]1C[C@H]2CC[C@@H](C1)N2Cc1c[nH]c2cc(Oc3nc4c(F)cccc4s3)ccc12` [Example 14, meso-endo-N-{8-[6-(4-Fluoro-benzothiazol-2-yloxy)-1H-indol-3-ylmethyl]-8-aza-bicyclo[3.2.1]oct-3-yl}-acetamide], the IC50 in test [2] came out at 66 nM.
Turning to `CC(=O)N1C[C@H]2CC[C@@H](C1)N2Cc1cc2ncc(Oc3nc4ncccc4s3)cc2o1` [Example 338, meso-1-{8-[6-(Thiazolo[4,5-b]pyridin-2-yloxy)-furo[3,2-b]pyridin-2-ylmethyl]-3,8-diaza-bicyclo[3.2.1]oct-3-yl}-ethanone formate], in test [1] (setting [3]), the IC50 worked out at 450 nM.
Consider `CC(=O)NC1CCN(Cc2cc3ncc(Oc4nc5ncccc5s4)cc3o2)CC1` [Example 273, N-{1-[6-(Thiazolo[4,5-b]pyridin-2-yloxy)-furo[3,2-b]pyridin-2-ylmethyl]-piperidin-4-yl}-acetamide formate], for which the IC50 in test [1] (setting [3]) worked out at 160 nM.
Take `CNC(=O)c1coc2cc(Oc3nc4ncccc4s3)ccc12` [Example 367, 6-(Thiazolo[4,5-b]pyridin-2-yloxy)-benzofuran-3-carboxylic acid methylamide]: the IC50 in test [1] (setting [3]) was 160 nM.
Same read-out and setting: as for `CC(=O)N1C[C@@H]2C[C@H]1CN2Cc1cc2ccc(Oc3nc4cccnc4s3)cc2o1` [Example 122, (1S,4S)-1-{5-[6-(Thiazolo[5,4-b]pyridin-2-yloxy)-benzofuran-2-ylmethyl]-2,5-diaza-bicyclo[2.2.1]hept-2-yl}-ethanone], the figure is 3430 nM; as for `C[C@H]1COCCN1Cc1cc2cc(Oc3nc4ncccc4s3)ccc2o1` [Example 98, (3S)-2-[2-(3-Methyl-morpholin-4-ylmethyl)-benzofuran-5-yloxy]-thiazolo[4,5-b]pyridine], 153 nM.
For `NC(=O)C1CCN(CCc2c[nH]c3ccc(Oc4nc5ccccc5s4)cc23)CC1` [Example 75, 1-{2-[5-(Benzothiazol-2-yloxy)-1H-indol-3-yl]-ethyl}-piperidine-4-carboxylic acid amide], the IC50 in test [1] (setting [3]) turned out to be 714 nM.
`COc1ccc(CNCc2coc3cc(Oc4nc5ncccc5s4)ccc23)cc1` [Example 346, (4-Methoxy-benzyl)-[6-(thiazolo[4,5-b]pyridin-2-yloxy)-benzofuran-3-ylmethyl]-amine]: in test [1] (setting [3]), the IC50 worked out at 13 nM.
For `CC(=O)N1C[C@@H]2C[C@H]1CN2Cc1cc2cc(Oc3nc4cnccc4s3)ccc2o1` [Example 199, (1S,4S)-1-{5-[5-(Thiazolo[4,5-c]pyridin-2-yloxy)-benzofuran-2-ylmethyl]-2,5-diaza-bicyclo[2.2.1]hept-2-yl}-ethanone formate], the IC50 in test [1] was found to be 338 nM.
With `O=C(c1coc2cc(Oc3nc4ncccc4s3)ccc12)N1CCC2CCCCC2C1` (centres unmarked) [Example 385, (Octahydro-isoquinolin-2-yl)-[6-(thiazolo[4,5-b]pyridin-2-yloxy)-benzofuran-3-yl]-methanone], in test [1] (setting [3]), the IC50 was found to be 1530 nM.
Take `CC(C)(C)OC(=O)C1CCN(Cc2cc3ccc(Oc4nc5ncccc5s4)cc3o2)CC1` [Example 225, 1-[6-(Thiazolo[4,5-b]pyridin-2-yloxy)-benzofuran-2-ylmethyl]-piperidine-4-carboxylic acid tert-butyl ester]: the IC50 in test [1] (setting [3]) was 765 nM.
In the case of `O=C(O)c1ccc(C(=O)NCc2coc3cc(Oc4nc5ncccc5s4)ccc23)cc1` [Example 396, N-[6-(Thiazolo[4,5-b]pyridin-2-yloxy)-benzofuran-3-ylmethyl]-terephthalamic acid], the IC50 in test [1] (setting [3]) amounted to 52 nM.
Turning to `CC(=O)NCc1coc2cc(Oc3nc4ncccc4s3)ccc12` [Example 395, N-[6-(Thiazolo[4,5-b]pyridin-2-yloxy)-benzofuran-3-ylmethyl]-acetamide], the IC50 in test [1] (setting [3]) came out at 85 nM.
Turning to `CC(=O)NC1CCN(Cc2cc3ccc(Oc4nc5ncccc5s4)cc3o2)C1` (centres unmarked) [Example 120, N-(1-{[6-([1,3]thiazolo[4,5-b]pyridin-2-yloxy)-1-benzofuran-2-yl]methyl}pyrrolidin-3-yl)acetamide formate], in test [1] (setting [3]), the IC50 turned out to be 145 nM.
On to `CC(=O)N[C@H]1C[C@H]2CC[C@@H](C1)N2Cc1cc2cc(Oc3nc4cnccc4s3)ccc2o1` [Example 200, meso-endo-N-{8-[5-(Thiazolo[4,5-c]pyridin-2-yloxy)-benzofuran-2-ylmethyl]-8-aza-bicyclo[3.2.1]oct-3-yl}-acetamide formate], for which the IC50 in test [1] (setting [3]) was 1130 nM.
For `c1cnc2nc(Oc3ccc4cc(CN5CCOCC5)oc4c3)sc2c1` [Example 115, 2-(2-Morpholin-4-ylmethyl-benzofuran-6-yloxy)-thiazolo[4,5-b]pyridine], the IC50 in test [1] (setting [3]) was found to be 327 nM.
The same measure, in the same setting: for `O=C(c1coc2cc(Oc3nc4ncccc4s3)ccc12)N1CCc2ccccc2C1` [Example 386, (3,4-Dihydro-1H-isoquinolin-2-yl)-[6-(thiazolo[4,5-b]pyridin-2-yloxy)-benzofuran-3-yl]-methanone] the value was 210 nM; for `CCN(C(=O)c1coc2cc(Oc3nc4ncccc4s3)ccc12)C1CCCCC1` [Example 381, 6-(Thiazolo[4,5-b]pyridin-2-yloxy)-benzofuran-3-carboxylic acid cyclohexyl-ethyl-amide], 110 nM.
